This is an account of results in ChEMBL document CHEMBL1153291, “Synthesis and structure-activity relationships of novel benzofuran farnesyltransferase inhibitors” (Bioorg Med Chem Lett, 2009).

A value given as a limit tells only on which side of the number the result lay.

In general, IC50 refers to the midpoint of a concentration-inhibition curve. A low value points to greater potency in that assay. For orientation: AUC(0-t) means exposure summed from dosing to a finite time, without extrapolation to infinity. Higher therefore signals high exposure. A word on the half-life: it is the time needed for the level to fall by half in the phase considered. A lower half-life goes with rapid decline. As a reminder, the Cmax is the maximum level reached in the sampled fluid or tissue. By CL/F is commonly meant the apparent clearance, not corrected for the fraction that reaches the circulation. By bioavailability is commonly meant dose-corrected exposure relative to a reference, in per cent. A low value points to little systemic uptake.

Series [1] has as its target Protein farnesyltransferase (Homo sapiens, UniProt P49354+P49356). In words: Inhibition of human FTase. It is filed as protein-complex assay.
Series [2] deals with QG-56. In words: Antiproliferative activity against human QG56 cells. Type of series: functional, cell-based.
Series [3] can be described thus: AUC (0 to 24 hrs) in mouse at 25 mg/kg, iv. Details: time < 24 hr, dose 25 mg/kg, route intravenous. The note with it: plasma. Type of series: ADME, organism-based.
The nature of series [4]: Half life in mouse at 25 mg/kg, iv. The note with it: in vivo. It is filed as ADME, organism-based. Details: dose 25 mg/kg, route intravenous.
Series [5] in a line: Cmax in mouse at 25 mg/kg, po. It is filed as ADME, organism-based. Details: dose 25 mg/kg, route oral. The settings on record: in vivo.
Series [6] is described as follows: AUC (0 to 24 hrs) in mouse at 25 mg/kg, po. The settings on record: plasma. Type of series: ADME, organism-based. Details: time < 24 hr, dose 25 mg/kg, route oral.
A short description of series [7]: Apparent oral clearance in mouse at 25 mg/kg, po. Type of series: ADME, organism-based. The note with it: in vivo. Details: dose 25 mg/kg, route oral.
A short description of series [8]: Half life in mouse at 25 mg/kg, po. Type of series: ADME, organism-based. Details: dose 25 mg/kg, route oral. The settings on record: in vivo.
Series [9] in a line: Oral bioavailability in mouse at 25 mg/kg. It is filed as ADME, organism-based. The note with it: in vivo.
Series [10] is described as follows: AUC (0 to 24 hrs) in mouse at 100 mg/kg, po. It is filed as ADME, organism-based. Details: time < 24 hr, dose 100 mg/kg, route oral. The settings on record: plasma.
Series [11] is described as follows: Apparent oral clearance in mouse at 100 mg/kg, po. Type of series: ADME, organism-based. Details: dose 100 mg/kg, route oral. The note with it: in vivo.
Series [12] is described as follows: Half life in mouse at 100 mg/kg, po. Type of series: ADME, organism-based. Details: dose 100 mg/kg, route oral. The settings on record: in vivo.
Series [13] is described as follows: Oral bioavailability in mouse at 100 mg/kg. It is filed as ADME, organism-based. The note with it: in vivo.
In series [14] the test system is QG-56. Briefly: Antitumor activity against human QG56 cells xenografted in mouse assessed as reduction of tumor volume at 200 mg/kg, po administered 5 times a week for 2 weeks. Type of series: functional, organism-based. Details: dose 200 mg/kg. In general terms: A xenograft is tissue or cells of one species grown in another, often human tumour cells in immunodeficient mice.

For series [15], the system named is QG-56. In words: Toxicity in mouse xenografted with human QG56 cells assessed as reduction of body weight loss at 200 mg/kg, po administered 5 times a week for 2 weeks. Details: dose 200 mg/kg. Type of series: functional, organism-based.
Series [16] in a line: Cmax in mouse at 100 mg/kg, po. It is filed as ADME, organism-based. Details: dose 100 mg/kg, route oral. The note with it: in vivo.

Regarding `Cn1cncc1C(O)(c1ccc(Cl)cc1)c1cc2cc([N+](=O)[O-])cc(-c3ccccc3)c2o1` (racemic), the figures for the IC50 (in series [1]; in the series with QG-56 [2]) were 170 nM and 1880 nM, respectively.

Consider `Cn1cncc1C(O)(c1ccc(C#N)cc1)c1cc2cc([N+](=O)[O-])cc(-c3ccc(F)cc3)c2o1` (racemic), for which the values for the IC50 (in [1]; with QG-56 [2]) were 7.2 nM and 158 nM, respectively.

In the case of `COc1cccc(-c2cc(C#N)cc3cc([C@](N)(c4ccc(C#N)cc4)c4cncn4C)oc23)c1`, the half-maximal inhibitory concentration (IC50) is 1.2 nM in series [1] and 1.5 nM in the series on QG-56 [2].

As for `COc1cccc(-c2cc(CN(C)C)cc3cc(C(O)(c4ccc(C#N)cc4)c4cncn4C)oc23)c1` (racemic), the values for the IC50 (in series [1]; with QG-56 [2]) were 11 nM and 142 nM, respectively.

As to `Cn1cncc1[C@](N)(c1ccc(C#N)cc1)c1cc2cc([N+](=O)[O-])cc(-c3ccccc3)c2o1`, the values for the IC50 (in [1]; in the series with QG-56 [2]) were 49 nM and 206 nM, respectively.

`Cn1cncc1[C@@](N)(c1ccc(C#N)cc1)c1cc2cc(C#N)cc(-c3cccc(C#N)c3)c2o1`: the values for the IC50 (in [1]; in the series with QG-56 [2]) were 0.7 nM and 2 nM, respectively.

`Cc1cccc(-c2cc([N+](=O)[O-])cc3cc(C(O)(c4ccc(C#N)cc4)c4cncn4C)oc23)c1` (racemic): the IC50 worked out at 11 nM in series [1] and 23.2 nM in the series with QG-56 [2].

As for `COc1cccc(-c2cc([N+](=O)[O-])cc3cc([C@](N)(c4ccc(C#N)cc4)c4cncn4C)oc23)c1`, the IC50 turned out to be 0.8 nM in series [1] and 1.1 nM in the series with QG-56 [2].

For `Cn1cncc1C(O)(c1ccc(C(=O)OC(C)(C)C)cc1)c1cc2cc([N+](=O)[O-])cc(-c3ccccc3)c2o1` (racemic), the IC50 in series [1] is greater than 1000 nM; with QG-56 [2], 6250 nM.

Regarding `Cn1cncc1C(O)(c1ccc(Br)cc1)c1cc2cc([N+](=O)[O-])cc(-c3ccccc3)c2o1` (racemic), the IC50 in series [1] was found to be 360 nM; in the series with QG-56 [2], 1480 nM.

Consider `Cn1cncc1C(O)(c1ccc(C#N)cc1)c1cc2cc(C#N)cc(-c3ccccc3)c2o1` (racemic), for which the figures for the IC50 (in series [1]; with QG-56 [2]) were 2.4 nM and 14.5 nM, respectively.

For `COc1ccc(C(O)(c2cc3cc([N+](=O)[O-])cc(-c4ccccc4)c3o2)c2cncn2C)cc1` (racemic), the IC50 in series [1] is 250 nM; with QG-56 [2], 4970 nM.

Take `Cn1cncc1C(O)(c1ccc([N+](=O)[O-])cc1)c1cc2cc([N+](=O)[O-])cc(-c3ccccc3)c2o1` (racemic): the figures for the IC50 (in [1]; in the series with QG-56 [2]) were 30 nM and 547 nM, respectively.

Regarding `COc1cccc(-c2cc([N+](=O)[O-])cc3cc(C(O)(c4ccc(C#N)cc4)c4cncn4C)oc23)c1` (racemic), the IC50 in series [1] came out at 8.5 nM; in the series with QG-56 [2], 38.8 nM.

As to `Cn1cncc1C(O)(c1ccc(I)cc1)c1cc2cc([N+](=O)[O-])cc(-c3ccccc3)c2o1` (racemic), the IC50 in series [1] is 360 nM; with QG-56 [2] it was greater than 10000 nM.

Regarding `Cn1cncc1C(O)(c1ccc(C#N)cc1)c1cc2cc([N+](=O)[O-])cc(-c3ccccc3F)c2o1` (racemic), the IC50 is 3.3 nM in [1] and 89.5 nM in the series on QG-56 [2].

Turning to `COc1cccc(-c2cc(C(=O)NN3CCOCC3)cc3cc(C(O)(c4ccc(C#N)cc4)c4cncn4C)oc23)c1` (racemic), inhibition in [1] was half-maximal at 2.6 nM (IC50).

With `Cn1cncc1[C@@](N)(c1ccc(C#N)cc1)c1cc2cc(C#N)cc(-c3cccc(F)c3)c2o1`, the values for the IC50 (in series [1]; with QG-56 [2]) were 1.1 nM and 2 nM, respectively. Also, the AUC(0-t) at 24 h in series [3] came out at 15400 ng·h/mL; in series [6], 10200 ng·h/mL; in series [10], 31300 ng·h/mL. Also, the half-life in series [4] was 1.2 h; in series [8], 2.4 h; in series [12], 12.3 h. Moreover, the Cmax in [5] was 1570 ng/mL; in [16] it was 5010 ng/mL. Besides, the CL/F in [7] is 40.8 mL/min/kg; in series [11], 41 mL/min/kg. Further, the bioavailability is 66% in [9] and 51% in [13]. The Activity entry is “Non-toxic” in the series with QG-56 [14] and “Not toxic” in the series on QG-56 [15].

With `COc1ccc(-c2cc([N+](=O)[O-])cc3cc(C(O)(c4ccc(C#N)cc4)c4cncn4C)oc23)cc1` (racemic), the IC50 in series [1] worked out at 4 nM; in the series with QG-56 [2], 36 nM.

Turning to `Cn1cncc1[C@@](N)(c1ccc(C#N)cc1)c1cc2cc([N+](=O)[O-])cc(-c3ccccc3)c2o1`, the IC50 turned out to be 1.5 nM in series [1] and 5.9 nM with QG-56 [2].

Regarding `Cn1cncc1C(O)(c1ccc(C#N)cc1)c1cc2cc([N+](=O)[O-])cc(-c3cccc(C#N)c3)c2o1` (racemic), 22.9 nM corresponded to half-maximal inhibition with QG-56 [2] (IC50).

As for `COc1cccc(-c2cc(C=O)cc3cc(C(O)(c4ccc(C#N)cc4)c4cncn4C)oc23)c1` (racemic), the half-maximal inhibitory concentration (IC50) in series [1] is 2 nM; in the series on QG-56 [2], 15.2 nM.

Consider `COc1cccc(-c2cc(CO)cc3cc(C(O)(c4ccc(C#N)cc4)c4cncn4C)oc23)c1` (racemic), for which the IC50 came out at 1 nM in [1] and 16.8 nM with QG-56 [2].

`COc1cccc(-c2cc(C(N)=O)cc3cc(C(O)(c4ccc(C#N)cc4)c4cncn4C)oc23)c1` (racemic): the figures for the IC50 (in series [1]; in the series with QG-56 [2]) were 0.9 nM and 8.2 nM, respectively.

On to `Cn1cncc1C(O)(c1ccc(C#N)cc1)c1cc2cc([N+](=O)[O-])cc(-c3ccccc3)c2o1` (racemic), for which the IC50 in series [1] came out at 6.4 nM; in the series with QG-56 [2] it was 1480 nM.

For `Cn1cncc1C(O)(c1ccc(C#N)cc1)c1cc2cc([N+](=O)[O-])cc(-c3ccc(C#N)cc3)c2o1` (racemic), the concentration for half-maximal inhibition (IC50) in [1] was 3.4 nM; in the series on QG-56 [2], 32.6 nM.

For `Cn1cncc1C(O)(c1ccc(C(=O)O)cc1)c1cc2cc([N+](=O)[O-])cc(-c3ccccc3)c2o1` (racemic), the IC50 was 850 nM in series [1] and greater than 10000 nM in the series with QG-56 [2].

In the series with QG-56 [2], `Cn1cncc1C(O)(c1ccc(Cl)cc1)c1cc2cc(C(=O)NN3CCOCC3)cc(-c3ccccc3)c2o1` (racemic) gave an IC50 of 73.6 nM. That is a double-digit nanomolar value.

Consider `Cn1cncc1C(O)(c1ccc(C#N)cc1)c1cc2cc([N+](=O)[O-])cc(-c3cccc(F)c3)c2o1` (racemic), for which the IC50 was 6.3 nM in series [1] and 145 nM in the series on QG-56 [2].

For the compound `COC(=O)c1cc(-c2cccc(OC)c2)c2oc(C(O)(c3ccc(C#N)cc3)c3cncn3C)cc2c1` (racemic), the IC50 in series [1] was 3.2 nM; in the series on QG-56 [2], 36.3 nM.
